Where a name gives a salt, the structure may show the parent alone. Each block holds one molecule with its values, some of them ahead of it. The source made the active and inactive calls. Rule as the data show it, for most assays here: active = IC50 of 5 µM or less and inactive = more.
Tests used:
[1] = HIV-1 Vif–A3G interaction blockers – biochemical, TR-FRET, GST-Vif 1-94, biotin-A3G peptide, dose response retest, primary screen (AID 1117319); format: functional;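 also: TR-FRET signal of purified GST-Vif binding a biotinylated A3G peptide; inhibitors lower the FRET signal by blocking Vif and A3G binding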
[2] = target: Aryl hydrocarbon receptor (Homo sapiens, UniProt P35869); conditions: Potency;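 also: confirmatory quantitative high-throughput screen measuring activation of the AhR signaling pathway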
Chain of Aryl hydrocarbon receptor (P35869 whole entry): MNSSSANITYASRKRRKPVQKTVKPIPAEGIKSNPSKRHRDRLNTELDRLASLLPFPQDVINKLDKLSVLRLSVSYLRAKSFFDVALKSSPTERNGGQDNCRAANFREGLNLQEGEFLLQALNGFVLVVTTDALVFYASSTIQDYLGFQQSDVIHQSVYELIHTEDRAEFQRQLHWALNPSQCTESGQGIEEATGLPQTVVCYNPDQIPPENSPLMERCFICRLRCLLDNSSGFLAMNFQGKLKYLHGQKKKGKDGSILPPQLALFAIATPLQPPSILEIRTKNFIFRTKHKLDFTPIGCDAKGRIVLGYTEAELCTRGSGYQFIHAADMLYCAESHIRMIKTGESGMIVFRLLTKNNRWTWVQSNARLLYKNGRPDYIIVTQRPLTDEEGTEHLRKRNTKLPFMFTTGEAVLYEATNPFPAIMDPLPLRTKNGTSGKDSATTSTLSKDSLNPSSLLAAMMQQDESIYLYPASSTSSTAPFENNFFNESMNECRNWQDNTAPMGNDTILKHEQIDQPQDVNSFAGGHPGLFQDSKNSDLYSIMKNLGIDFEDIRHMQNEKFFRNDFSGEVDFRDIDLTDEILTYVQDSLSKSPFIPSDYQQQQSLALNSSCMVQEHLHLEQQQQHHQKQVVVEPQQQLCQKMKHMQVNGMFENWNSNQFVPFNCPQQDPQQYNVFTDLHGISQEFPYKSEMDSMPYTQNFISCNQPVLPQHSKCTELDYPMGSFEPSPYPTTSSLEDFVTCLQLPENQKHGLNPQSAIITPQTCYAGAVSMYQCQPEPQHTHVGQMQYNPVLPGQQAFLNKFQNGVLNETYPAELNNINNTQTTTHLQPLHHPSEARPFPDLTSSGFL

[3] = cytotoxicity toward HT-29 cells – cell-based, CellTiter-Glo luminescence, IC50, dose response (AID 1117330); format: functional
[4] = cytotoxicity toward Colo320 cells – cell-based, CellTiter-Glo luminescence, IC50, dose response (AID 1117334); format: functional; conditions: COLO 320
[5] = cytotoxicity toward HCT116 cells – cell-based, CellTiter-Glo luminescence, IC50, dose response (AID 1117332); format: functional; conditions: HCT-116
[6] = HCT116 cell viability decrease, GSK3B pretreatment – CellTiter-Glo, IC50, dose response (AID 1117339); format: functional; conditions: HCT-116
[7] = SNU-C1 cell viability reduction, dose response, CellTiter-Glo luminescence (AID 1117323); format: functional, cell-based
[8] = RKO cell viability reduction, dose response, CellTiter-Glo luminescence (AID 1117322); format: functional
[9] = CellTiter-Glo luminescence survival assay, SW480 colon tumor line, concentration-response curve, half-maximal inhibitory concentration (AID 1117338); format: functional
[10] = Reduced DLD-1 viability, concentration-response, CellTiter-Glo luminescence (AID 1117352); format: functional
[11] = IC50 of insulin release inhibition, rat insulinoma INS-1E line, 5 mM glucose, cell-based (AID 1117331); format: functional
[12] = target: T1, RNA-binding protein pos-1 (Caenorhabditis elegans, UniProt G5EF15); assay: disruptors of C. elegans POS-1 RNA interaction – biochemical, fluorescence polarization, dose response (AID 1964);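 also: purified POS-1 fused to maltose binding protein made in E. coli; potency of compounds blocking POS-1 binding to fluorescent RNA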
T1 sequence (G5EF15 whole entry): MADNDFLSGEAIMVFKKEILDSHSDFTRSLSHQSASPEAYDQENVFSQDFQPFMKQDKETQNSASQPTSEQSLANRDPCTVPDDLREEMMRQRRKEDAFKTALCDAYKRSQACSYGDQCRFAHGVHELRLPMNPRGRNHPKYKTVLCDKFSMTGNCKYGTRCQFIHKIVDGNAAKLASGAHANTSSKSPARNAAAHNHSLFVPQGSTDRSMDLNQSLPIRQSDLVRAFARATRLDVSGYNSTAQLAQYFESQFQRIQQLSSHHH

Protein Tat = Protein Tat (Human immunodeficiency virus type 1 group M subtype B (isolate HXB2)(HIV-1), UniProt P04608); format: functional;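 also: tat binding to TAR RNA read out by fluorescence polarization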
Chain of Protein Tat (P04608 whole entry): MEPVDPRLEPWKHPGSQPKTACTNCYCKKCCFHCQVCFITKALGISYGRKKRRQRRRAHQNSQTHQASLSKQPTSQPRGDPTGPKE

[13] = target: T2, Zinc finger protein mex-5 (Caenorhabditis elegans, UniProt Q9XUB2); assay: potency of MEX-5 RNA-binding blockers – biochemical, C. elegans, fluorescence polarization, dose response (AID 1960)
T2 sequence (Q9XUB2 whole entry): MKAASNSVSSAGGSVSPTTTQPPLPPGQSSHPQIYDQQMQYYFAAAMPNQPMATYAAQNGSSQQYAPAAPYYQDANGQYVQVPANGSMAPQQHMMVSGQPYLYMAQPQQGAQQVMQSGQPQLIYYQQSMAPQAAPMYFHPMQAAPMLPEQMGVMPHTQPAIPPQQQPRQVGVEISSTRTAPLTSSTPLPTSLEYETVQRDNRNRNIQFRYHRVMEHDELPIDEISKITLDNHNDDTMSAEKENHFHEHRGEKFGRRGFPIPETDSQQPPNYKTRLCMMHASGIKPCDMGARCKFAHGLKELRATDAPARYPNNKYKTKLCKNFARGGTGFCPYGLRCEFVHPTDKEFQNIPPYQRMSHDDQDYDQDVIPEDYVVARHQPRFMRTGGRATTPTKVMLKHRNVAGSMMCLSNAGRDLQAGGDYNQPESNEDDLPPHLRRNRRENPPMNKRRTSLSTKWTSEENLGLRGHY

[14] = target: T3, Mannose-6-phosphate isomerase (Homo sapiens, UniProt P34949); assay: MPI enzyme activity inhibition – biochemical, fluorescence intensity, coupled assay, primary screen (AID 1209)
T3 sequence (P34949 whole entry): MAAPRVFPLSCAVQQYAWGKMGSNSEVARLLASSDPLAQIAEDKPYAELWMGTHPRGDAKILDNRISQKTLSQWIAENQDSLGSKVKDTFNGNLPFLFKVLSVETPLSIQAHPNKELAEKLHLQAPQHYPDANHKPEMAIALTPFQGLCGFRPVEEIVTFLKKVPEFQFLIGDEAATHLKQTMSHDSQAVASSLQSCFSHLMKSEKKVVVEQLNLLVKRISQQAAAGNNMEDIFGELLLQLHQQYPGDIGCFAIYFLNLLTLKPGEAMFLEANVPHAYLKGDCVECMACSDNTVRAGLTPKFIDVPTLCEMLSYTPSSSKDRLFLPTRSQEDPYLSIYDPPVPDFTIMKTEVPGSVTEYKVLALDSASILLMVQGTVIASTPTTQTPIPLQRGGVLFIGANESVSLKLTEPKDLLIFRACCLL

IC50 [1]: > 100000 nM (active)
Structure (SMILES): O=C(NCCCN1CCOCC1)C1CC(=O)N(CCc2ccccc2)C1 (stereo not given)

Structure (SMILES): CN(C)c1ccc(C(=C2C=CC(=[N+](C)C)C=C2)c2ccccc2)cc1
AC50 [2]: 7940 nM (inconclusive) | IC50 [3]: 9.82 nM (active) | IC50 [4]: 161 nM (active) | IC50 [5]: 17.9 nM (active) | IC50 [6]: 9.83 nM (active) | IC50 [7]: 35.4 nM (active) | IC50 [8]: 118 nM (active) | IC50 [9]: 9.22 nM (active) | IC50 [10]: 21.8 nM (active)

Structure (SMILES): CN(C)CCCOc1nn(Cc2ccccc2)c2ccccc12 [BENZYDAMINE HYDROCHLORIDE]
IC50 [11]: 21400 nM (inactive)

EC50 [12]: 43900 nM (active) | IC50 (Protein Tat): > 100000 nM (active) | EC50 [13]: 12900 nM (active) | IC50 [14]: 39500 nM (active)
Structure (SMILES): Cc1cc(O)c(Oc2cc(C)cc(O)c2O)c(O)c1
